Data as given in patent US12655096B2, “Crystalline polymorphs of Rigosertib sodium” (ASSIA CHEMICAL INDUSTRIES LTD., priority 2018, dated 2026).
One block for each compound: values may come before it.

How the values were obtained:
[1] = as described in U.S. Pat. No. 8,476,320; cited from earlier work
[2] = Hygroscopicity (water absorption on exposure to relative humidity); assay type: physicochemical
From the text: As used herein the term non-hygroscopic in relation to crystalline Rigosertib Sodium refers to less than 1.0% (w/w) absorption of water, by the crystalline Rigosertib Sodium as determined, for example, by TGA when exposed to 60% RH for 7 days at RT, or preferably 80% RH for 7 days at RT.

[3] = Solid state stability on storage; assay type: physicochemical

SMILES: COc1cc(OC)c(/C=C/S(=O)(=O)Cc2ccc(OC)c(NCC(=O)O)c2)c(OC)c1 [Amorphous Rigosertib Sodium, Rigosertib Sodium]
hygroscopicity (water absorption) [1]: readily absorbs water after complete drying

hygroscopicity ([2]; non-hygroscopic defined as less than 1.0% (w/w) absorption of water): non-hygroscopic
hygroscopicity at relative humidity ([2]; up to about 80% relative humidity, about 7 days, 25° C.): substantially non-hygroscopic
stability of the solid state form [3]: stable
SMILES: COc1cc(OC)c(/C=C/S(=O)(=O)Cc2ccc(OC)c(NCC(=O)O)c2)c(OC)c1 [Rigosertib Sodium Form A, Rigosertib Sodium]

time for which the form is stable ([3]; at RT): at least 4 M
SMILES: COc1cc(OC)c(/C=C/S(=O)(=O)Cc2ccc(OC)c(NCC(=O)O)c2)c(OC)c1 [Rigosertib Sodium Form E, Rigosertib Sodium]
